Laboratory results reported in patent publication US20080249042A1, “All-Trans-Retinol: All-Trans-13,14-Dihydroretinol Saturase and Methods of Its Use” (UNIVERSITY OF WASHINGTON, priority 2004, published 2008).
Read-outs that look alike come from different tables or passages of the source. One block for each compound: values may come before it.

Columns and labels:
[1] = Liver retinoids of Lrat-/- mice 3 h after gavage with all-trans-DROL; format: in vivo, mouse; settings: 3 h post-gavage
From the text: (§1) Metabolism of Retinoids in Vivo. All animal experiments employed procedures approved by the University of Washington and conformed to recommendations of the American Veterinary Medical Association Panel on Euthanasia and recommendations of the Association of Research for Vision and Ophthalmology. Animals were maintained on a 12-h light and 12-h dark cycle. All manipulations were done under dim red or infrared light (>560 nm). Most experiments used 6-12-week-old mice. Lrat−/− mice were genotyped as described previously. Batten, et al. J. Biol. Chem. 279:10422-10432, 2004. Animals were maintained on a control chow diet up to 1 h prior to oral gavage. The appropriate amount of all-trans-ROL palmitate, all-trans-DROL, or all-trans-RA was dissolved in vegetable oil and administered by oral gavage 3 h prior to analysis.
(§2) Analysis of Retinoids. Liver (1 g) from retinoid gavaged or naive mice was homogenized in 2 ml of 137 mM NaCl, 2.7 mM KCl, and 10 mM sodium phosphate (pH 7.4) for 30 s using a Polytron homogenizer. 10 μl of 5 M NaOH was added to 3 ml of the ethanolic extract, and the nonpolar retinoids were extracted using 5 ml of hexane. The extraction was repeated, and the organic phases were combined, dried under vacuum, resuspended in hexane, and examined by normal phase HPLC using a normal phase column (Beckman Ultrasphere Si 5μ, 4.6×250 mm). […] The HPLC elution conditions were […], 100% buffer A for 40 min, 100% buffer B for 10 min, and 10 min equilibration in buffer A. The elution profiles of RA and DRA were monitored using an online diode array detector set at 350 and 290 nm, respectively. […] The measured area of absorbance was converted to picomoles based on a calibration of the HPLC columns using a known amount of all-trans-RA or all-trans-ROL (Sigma) and all-trans-DROL or all-trans-DRA (synthetic standards). The extraction efficiency was monitored by spiking a tissue sample with [^3H]RA (PerkinElmer Life Sciences) and monitoring the radioactivity recovered from the HPLC column. […]

[2] = Liver retinoids of Lrat-/- mice 3 h after gavage with all-trans-RA; format: in vivo, mouse; settings: 3 h post-gavage
From the text: as §1, §2

[3] = Liver retinoids of Lrat-/- mice 3 h after gavage with all-trans-ROL palmitate; format: in vivo, mouse; settings: Lrat−/− (LRAT-deficient knockout), mouse, liver, oral, Lrat-/- mice, liver, 3 hr post-gavage, read-out: Level of liver retinoids 3 hr following gavage with ROL palmitate
From the text: as §1
Analysis of Retinoids. Liver (1 g) from retinoid gavaged or naive mice was homogenized in 2 ml of 137 mM NaCl, 2.7 mM KCl, and 10 mM sodium phosphate (pH 7.4) for 30 s using a Polytron homogenizer. 10 μl of 5 M NaOH was added to 3 ml of the ethanolic extract, and the nonpolar retinoids were extracted using 5 ml of hexane. The extraction was repeated, and the organic phases were combined, dried under vacuum, resuspended in hexane, and examined by normal phase HPLC using a normal phase column (Beckman Ultrasphere Si 5μ, 4.6×250 mm). The elution condition was an isocratic solvent system of 10% ethyl acetate in hexane (v/v) for 25 min at a flow rate of 1.4 ml/min at 20° C. with detection at 325 and 290 nm for the detection of nonpolar retinoids and 13,14-dihydroretinoids, respectively. The aqueous phase was acidified with 40 μl of 12 N HCl, and polar retinoids were extracted with 5 ml of hexane. The extraction was repeated, and the organic phases of the polar retinoid extractions were combined, dried, resuspended in solvent composed of 80% CH3CN, 10 mM ammonium acetate, 1% acetic acid, and examined by reverse phase HPLC. Analysis of polar retinoids from tissues was done by reverse phase HPLC using a narrowbore, 120-Å, 5-μm, 2.1×250 mm, Denali C18 column (Grace-Vydac, Hesperia, Calif.). The solvent system was composed of buffer A, 80% methanol, 20% 36 mM ammonium acetate (pH 4.7 adjusted with acetic acid), and buffer B, 100% methanol. The HPLC elution conditions were […], 100% buffer A for 40 min, 100% buffer B for 10 min, and 10 min equilibration in buffer A. The elution profiles of RA and DRA were monitored using an online diode array detector set at 350 and 290 nm, respectively. The peaks were identified based on their UV-visible spectra and/or coelution with synthetic or commercially available standards. The measured area of absorbance was converted to picomoles based on a calibration of the HPLC columns using a known amount of all-trans-RA or all-trans-ROL (Sigma) and all-trans-DROL or all-trans-DRA (synthetic standards). The extraction efficiency was monitored by spiking a tissue sample with [^3H]RA (PerkinElmer Life Sciences) and monitoring the radioactivity recovered from the HPLC column. In the case of liver samples the extraction efficiency was 95% or better. Mass spectrometry analyses of synthesized retinoids and of natural retinoids purified by HPLC were performed using a Kratos profile HV-3 direct probe mass spectrometer.

tomato CRTISO = target: T1, tomato CRTISO (Solanum lycopersicum, UniProt Q8S4R4); assay: CRTISO activity in transfected HEKK cells; format: cell-based; settings: CRTISO-expressing cells, overnight, in the dark
T1 construct: expressed in transfected cells
T1 sequence (Q8S4R4 with tags, fused parts or gaps): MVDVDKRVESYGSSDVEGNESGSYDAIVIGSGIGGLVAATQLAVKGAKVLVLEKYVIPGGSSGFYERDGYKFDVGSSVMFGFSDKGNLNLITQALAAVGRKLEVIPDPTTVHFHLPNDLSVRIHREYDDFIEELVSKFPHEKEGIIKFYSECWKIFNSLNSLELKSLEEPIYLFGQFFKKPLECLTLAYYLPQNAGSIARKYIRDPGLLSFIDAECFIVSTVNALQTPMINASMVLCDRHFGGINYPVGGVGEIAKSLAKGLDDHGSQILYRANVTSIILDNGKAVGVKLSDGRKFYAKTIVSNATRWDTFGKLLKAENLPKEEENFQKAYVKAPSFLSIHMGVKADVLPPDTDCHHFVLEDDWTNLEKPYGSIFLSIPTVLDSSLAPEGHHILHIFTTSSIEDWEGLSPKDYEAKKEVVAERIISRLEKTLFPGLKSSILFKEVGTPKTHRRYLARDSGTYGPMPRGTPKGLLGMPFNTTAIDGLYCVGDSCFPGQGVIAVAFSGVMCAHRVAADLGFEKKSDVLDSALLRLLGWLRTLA
Protocol: 7Z,9Z,9′Z,7′Z-Tetra-cis-tycopene purification and reverse-phase HPLC analysis of carotenoids. Carotenoid extraction and analysis were performed under dim red light. One gram from the fruit of a tangerine tomato was freeze-thawed three times and extracted with 2 ml PBS, 2 ml of ethanol, and 6 ml of hexane with the aid of a douncer. The organic phase was dried and resuspended in ethanol/tetrahydrofuran (9:1), and examined by reverse-phase HPLC System I (Prontosil, 200-3-C30, 3 μm, 4.6 mm×250 mm, Bischoff Chromatography, Leonberg, Germany) with a mobile phase of 75% tert-butyl methyl ether/25% methanol and a flow rate of 1 ml/min. More than 90% of the extract consisted of 7Z,9Z,9′Z,7′Z-tetra-cis-lycopene identified based on its published UV/VIS absorption spectrum in hexane with the following characteristics: shoulder at λ=417 nm, ε=90,000 M^−1cm^−1, λmax=437 nm, ε=105,000 M−1 cm^−1, shoulder at λ=461 nm ε=70,000 M^−1cm^−1. Bradford, Anal Biochem 72:248-254, 1976.
Enzyme assays of RetSat and CRTISO-catalyzed reactions. For enzyme assay, cells were seeded in six-well plates and expression of RetSat or CRTISO was induced with 1 μg/ml tetracycline 48 hr prior to analysis. […] For retinol and dihydroretinol analysis the methanol:water mixture was extracted with two volumes of hexane, then the organic phase was dried, resuspended in hexane, and analyzed by normal-phase HPLC. […]

mouse RetSat [4] = target: T2, mouse RetSat (Mus musculus, UniProt Q64FW2); assay: RetSat saturase activity in Tet-induced HEKK-RetSat cells; format: cell-based; settings: 40 μM substrate, overnight incubation
T2 construct: expressed in transfected cells
T2 sequence (Q64FW2 26-609): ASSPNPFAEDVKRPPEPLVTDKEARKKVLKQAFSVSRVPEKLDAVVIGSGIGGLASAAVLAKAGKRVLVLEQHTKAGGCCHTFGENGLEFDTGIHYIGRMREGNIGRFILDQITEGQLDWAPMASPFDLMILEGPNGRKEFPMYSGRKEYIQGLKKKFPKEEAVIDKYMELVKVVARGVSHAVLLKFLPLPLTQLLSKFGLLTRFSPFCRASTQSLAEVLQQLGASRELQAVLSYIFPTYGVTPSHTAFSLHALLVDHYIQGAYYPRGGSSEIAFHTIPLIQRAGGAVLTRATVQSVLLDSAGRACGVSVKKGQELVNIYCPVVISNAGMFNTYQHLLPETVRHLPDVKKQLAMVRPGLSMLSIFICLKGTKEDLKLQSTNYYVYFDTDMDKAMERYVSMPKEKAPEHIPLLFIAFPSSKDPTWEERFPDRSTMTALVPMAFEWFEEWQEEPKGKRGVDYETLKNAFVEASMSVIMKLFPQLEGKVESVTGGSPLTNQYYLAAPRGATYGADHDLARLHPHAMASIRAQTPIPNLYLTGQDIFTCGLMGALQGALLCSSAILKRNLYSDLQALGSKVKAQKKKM
Protocol: Enzyme assays of RetSat and CRTISO-catalyzed reactions. For enzyme assay, cells were seeded in six-well plates and expression of RetSat or CRTISO was induced with 1 μg/ml tetracycline 48 hr prior to analysis. Substrate preparation and addition were conducted under dim red light. Retinoid substrates were purified by HPLC as described above and dissolved in N,N-dimethylformamide (DMF) to a final concentration of 4 mM. Organic extract of tangerine tomatoes was dried under a stream of argon and resuspended in DMF. The substrates were diluted in 300 μl complete media (tetracycline 1 μg/ml) to a 40 μM final concentration, overlayed on cells, and incubated overnight in the dark at 37° C. in 5% CO2 and 100% humidity. Media and cells were collected by scraping, mixed with an equal volume of methanol. For retinol and dihydroretinol analysis the methanol:water mixture was extracted with two volumes of hexane, then the organic phase was dried, resuspended in hexane, and analyzed by normal-phase HPLC. […] For carotenoid analysis the organic phase was dried and resuspended in ethanol/tetrahydrofuran (9:1) and examined by reverse-phase HPLC System I. For retinoic acid analysis the 1:1 methanol:water mixture was acidified with 0.1 volumes of 12N HCl and extracted with 1 volume of chlorofom, dried and resuspended in ethanol and examined by reverse-phase HPLC System II.

mouse RetSat [5] = target: T2, mouse RetSat; settings: earlier report, Moise et al. 2004; cited from earlier work

- Level in liver after gavage with all-trans-DROL [1]: low levels
- Formation in liver after gavage with all-trans-RA [2]: no evidence
- concentration at 3 h ([3]; 10^5 IU/kg body weight all-trans-ROL palmitate): 200 ± 8 nM
- concentration at 3 h ([3]; 10^6 IU/kg body weight all-trans-ROL palmitate): 1800 nM
Compound: CC1=C(/C=C/C(C)=C/C=C/C(C)CO)C(C)(C)CCC1 (single isomer, unassigned) [C19-ROL, (3E,5E,7E)-2,6-dimethyl-8-(2,6,6-trimethylcyclohex-1-enyl)octa-3,5,7-trien-1-ol]

Compound: CC(C)=CCC/C(C)=C/C=C/C(C)=C/C=C/C(C)=C/C=C/C=C(C)/C=C/C=C(C)/C=C/C=C(\C)CCC=C(C)C [7Z,9Z,9′Z,7′Z-tetra-cis-lycopene]
- Conversion by CRTISO (substrate activity) (tomato CRTISO): converted
- Saturation by RetSat (substrate activity) (mouse RetSat [4]): no difference

Compound: CC1=C(/C=C/C(C)=C\C=C\C(C)=C\C(=O)O)C(C)(C)CCC1 [9-cis-RA, 9-cis-retinoic acid]
- Saturation by RetSat (mouse RetSat [5]): does not saturate

- Level in liver after gavage with all-trans-DROL [1]: significant levels
- Formation in liver after gavage with all-trans-RA [2]: no evidence
Compound: CC(C=CC1=C(C)C(=O)CCC1(C)C)=CC=CC(C)CC(=O)O (stereo not drawn) [all-trans-4-oxo-DRA]
